In PubChem BioAssay (NCI):
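Values below derive from 48-hour exposures of cells grown in 96-well plates, with endpoints linearly interpolated between the two concentrations bracketing the appropriate inhibition level. The concentration for 50% growth inhibition is given as GI50. TGI is the concentration that stops growth completely.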

How the values were obtained:
Assay in all cases: growth of human tumour cells (NCI), 48 h
U251 CNS = system: U251 CNS
UACC-257 melanoma = system: UACC-257 melanoma
BT-549 breast = system: BT-549 breast
T-47D breast = system: T-47D breast
UACC-62 melanoma = system: UACC-62 melanoma
OVCAR-3 ovarian = system: OVCAR-3 ovarian
NCI-H460 lung = system: NCI-H460 lung
OVCAR-5 ovarian = system: OVCAR-5 ovarian
DU-145 prostate = system: DU-145 prostate
HCT-15 colon = system: HCT-15 colon
NCI-H522 lung = system: NCI-H522 lung
K-562 leukemia = system: K-562 leukemia
NCI/ADR-RES ovarian = system: NCI/ADR-RES ovarian
786-0 renal = system: 786-0 renal
UO-31 renal = system: UO-31 renal
CAKI-1 renal = system: CAKI-1 renal
HCT-116 colon = system: HCT-116 colon
OVCAR-8 ovarian = system: OVCAR-8 ovarian
SK-MEL-2 melanoma = system: SK-MEL-2 melanoma
SK-MEL-28 melanoma = system: SK-MEL-28 melanoma
HOP-62 NSCLC = system: HOP-62 NSCLC
NCI-H226 lung = system: NCI-H226 lung
PC-3 prostate = system: PC-3 prostate
ACHN renal = system: ACHN renal
A498 renal = system: A498 renal
MDA-MB-435 = system: MDA-MB-435
HL-60(TB) leukemia = system: HL-60(TB) leukemia
HT29 colon = system: HT29 colon
SF-295 CNS = system: SF-295 CNS

O=C(CSc1nnc(-c2ccc(Cl)cc2)n1-c1ccccc1)Nc1ccc(Cl)cc1
TGI (U251 CNS): 11.5 µM
GI50 (UACC-257 melanoma): 39.8 µM
TGI (UACC-257 melanoma): > 100 µM
GI50 (BT-549 breast): 3.66 µM
TGI (BT-549 breast): 38.8 µM
GI50 (T-47D breast): 3.2 µM
TGI (T-47D breast): > 100 µM
GI50 (UACC-62 melanoma): 4.81 µM
TGI (UACC-62 melanoma): > 100 µM
GI50 (OVCAR-3 ovarian): 6.2 µM
TGI (OVCAR-3 ovarian): 57.8 µM
GI50 (NCI-H460 lung): 2.77 µM
TGI (NCI-H460 lung): 8.09 µM
GI50 (OVCAR-5 ovarian): 4.89 µM
TGI (OVCAR-5 ovarian): > 100 µM
GI50 (DU-145 prostate): 7.41 µM
TGI (DU-145 prostate): > 100 µM
GI50 (HCT-15 colon): 87.1 µM
TGI (HCT-15 colon): > 100 µM
GI50 (NCI-H522 lung): 3.11 µM
TGI (NCI-H522 lung): 17.2 µM
GI50 (K-562 leukemia): 13.4 µM
TGI (K-562 leukemia): > 100 µM
GI50 (NCI/ADR-RES ovarian): 4.06 µM
TGI (NCI/ADR-RES ovarian): > 100 µM
GI50 (786-0 renal): 1.92 µM
TGI (786-0 renal): 4.09 µM
GI50 (UO-31 renal): 1.83 µM
TGI (UO-31 renal): 5.2 µM
GI50 (CAKI-1 renal): 2.95 µM
TGI (CAKI-1 renal): 13 µM
GI50 (HCT-116 colon): 1.98 µM
TGI (HCT-116 colon): 4.29 µM
GI50 (OVCAR-8 ovarian): 3.79 µM
TGI (OVCAR-8 ovarian): 29.9 µM
GI50 (SK-MEL-2 melanoma): 13.6 µM
TGI (SK-MEL-2 melanoma): 63.8 µM
GI50 (SK-MEL-28 melanoma): 15.4 µM
TGI (SK-MEL-28 melanoma): > 100 µM
GI50 (HOP-62 NSCLC): 3.34 µM
TGI (HOP-62 NSCLC): 16 µM
GI50 (NCI-H226 lung): 3.2 µM
TGI (NCI-H226 lung): 20.8 µM
GI50 (PC-3 prostate): 20.1 µM
TGI (PC-3 prostate): > 100 µM
GI50 (ACHN renal): 1.76 µM
TGI (ACHN renal): 3.98 µM
GI50 (A498 renal): 1.88 µM
TGI (A498 renal): 5.15 µM
GI50 (MDA-MB-435): 21.5 µM
TGI (MDA-MB-435): > 100 µM
GI50 (HL-60(TB) leukemia): > 100 µM
TGI (HL-60(TB) leukemia): > 100 µM
GI50 (HT29 colon): 7.79 µM
TGI (HT29 colon): > 100 µM
GI50 (SF-295 CNS): 5.56 µM
TGI (SF-295 CNS): 21.1 µM
